Results on two compounds are retold here after publication PMC9764288, “Computation-Aided Engineering of Cytochrome P450 for the Production of Pravastatin” (ACS Catalysis, 2022).

The structures appear in SMILES notation.

In one series the target is T1, CYP105AS1 (Amycolatopsis orientalis, UniProt W5VH56).
T1 construct: N-terminal polyhistidine tag, pBAD vector, expressed in E. coli Top10
T1 sequence (W5VH56 1-401): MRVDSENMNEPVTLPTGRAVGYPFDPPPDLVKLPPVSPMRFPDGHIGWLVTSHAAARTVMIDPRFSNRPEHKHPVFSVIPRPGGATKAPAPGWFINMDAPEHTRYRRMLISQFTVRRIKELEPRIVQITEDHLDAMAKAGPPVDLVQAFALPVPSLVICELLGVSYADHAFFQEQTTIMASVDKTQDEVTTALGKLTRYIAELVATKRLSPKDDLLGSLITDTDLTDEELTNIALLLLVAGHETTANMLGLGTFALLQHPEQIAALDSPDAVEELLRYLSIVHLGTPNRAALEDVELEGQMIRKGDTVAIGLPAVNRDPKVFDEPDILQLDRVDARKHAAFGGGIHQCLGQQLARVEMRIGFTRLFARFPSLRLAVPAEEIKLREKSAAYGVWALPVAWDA
As to the kind of experiment: UV-vis spectral (type I Soret shift) titration of 3-8 uM purified P450 with compactin from DMSO stocks at 25 °C in 50 mM potassium phosphate, 300 mM KCl, 10% glycerol, pH 8.0; hyperbolic or Morrison tight-binding fit. The protocol:
(§1) Absorbance spectra (300–800 nm) of P450 variants were measured on a Cary 60 UV–vis spectrophotometer at 25 °C using 3–8 μM protein in buffer A. The pyridine hemochromogen method was used to quantify CYP105AS1 P450 variant heme concentrations and to determine an extinction coefficient at the heme Soret maximum for each variant.[89] For titration, compactin (0.05–0.5 μL) was added from 5 to 50 mM stock solutions in DMSO. The overall absorbance change (ΔAmax) was calculated as Apeak (absorbance maximum) minus Atrough (absorbance minimum) and plotted against the substrate concentration. Data were fitted according to a standard hyperbolic binding equation or a Morrison equation for tight-binding to determine dissociation constants (Kd).[90],[91]
(§2) UV–vis substrate binding studies were conducted to investigate the effect of mutations on compactin binding. […] Probably, the bulky aromatic side chain of the introduced Phe95 residue influenced the binding of compactin, which allowed elimination of the proximal water ligand and full conversion to the high-spin state upon binding of this substrate.

For a further series, the target named is T2, P450pra (Amycolatopsis orientalis, UniProt W5VH56, I95T/Q127R/A180V/L236I/A265N).
T2 construct: N-terminal polyhistidine tag, expressed in E. coli; directed evolution variant
Format: binding. The protocol: as §1, §2

A further series has as its target T3, P450pra + F76N (Amycolatopsis orientalis, UniProt W5VH56, F76N/I95T/Q127R/A180V/L236I/A265N).
T3 construct: N-terminal polyhistidine tag, expressed in E. coli
Format: binding. On the procedure: as §1, §2

Another series addresses T4, P450pra + P80G (Amycolatopsis orientalis, UniProt W5VH56, P80G/I95T/Q127R/A180V/L236I/A265N).
T4 construct: N-terminal polyhistidine tag, expressed in E. coli
Format: binding. On the procedure: as §1, §2

The target of the next series is T5, P450pra + T286I (Amycolatopsis orientalis, UniProt W5VH56, I95T/Q127R/A180V/L236I/A265N/T286I).
T5 construct: N-terminal polyhistidine tag, expressed in E. coli
In kind it is binding. On the procedure: as §1, §2

A further series deals with T6, P450pra + T95F (Amycolatopsis orientalis, UniProt W5VH56, I95F/Q127R/A180V/L236I/A265N).
T6 construct: N-terminal polyhistidine tag, expressed in E. coli
Format: binding. On the procedure: as §1, §2

For series [1], the target named is T7, P450pra + T95F/V180M (=P450pra100) (Amycolatopsis orientalis, UniProt W5VH56, I95F/Q127R/A180M/L236I/A265N).
T7 construct: N-terminal polyhistidine tag, expressed in E. coli
Format: binding. The protocol:
as §1, §2

The next series concerns the target T8, P450pra + T95W (Amycolatopsis orientalis, UniProt W5VH56, I95W/Q127R/A180V/L236I/A265N).
T8 construct: N-terminal polyhistidine tag, expressed in E. coli
Format: binding. On the procedure: as §1, §2

Another series concerns the target T9, P450pra +V180I (Amycolatopsis orientalis, UniProt W5VH56, I95T/Q127R/A180I/L236I/A265N).
T9 construct: N-terminal polyhistidine tag, expressed in E. coli
Format: binding. On the procedure: as §1, §2

The next series concerns the target T10, P450pra +V180M (Amycolatopsis orientalis, UniProt W5VH56, I95T/Q127R/A180M/L236I/A265N).
T10 construct: N-terminal polyhistidine tag, expressed in E. coli
In kind it is binding. The protocol: as §1, §2

Another series deals with human CYP3A4. Set-up: method as in PMID 19530969. To be noted: cited from earlier work.
Another series deals with CYP3A5. Also noted: method as in PMID 19530969. The conditions noted are these: cited from earlier work.

T8 sequence (W5VH56 entry or part of it I95W/Q127R/A180V/L236I/A265N): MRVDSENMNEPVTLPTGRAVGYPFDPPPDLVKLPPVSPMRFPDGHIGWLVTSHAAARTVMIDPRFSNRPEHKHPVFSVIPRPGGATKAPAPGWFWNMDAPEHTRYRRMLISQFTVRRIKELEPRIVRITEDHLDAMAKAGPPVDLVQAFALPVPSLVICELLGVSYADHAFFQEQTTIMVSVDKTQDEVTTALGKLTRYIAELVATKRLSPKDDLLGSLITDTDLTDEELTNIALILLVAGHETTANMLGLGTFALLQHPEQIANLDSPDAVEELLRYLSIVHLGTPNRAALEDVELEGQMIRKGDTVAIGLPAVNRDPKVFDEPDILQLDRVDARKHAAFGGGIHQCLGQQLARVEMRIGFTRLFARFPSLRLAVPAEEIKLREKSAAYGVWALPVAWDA
T6 sequence (W5VH56 entry or part of it I95F/Q127R/A180V/L236I/A265N): as the sequence (W5VH56 entry or part of it I95W/Q127R/A180V/L236I/A265N) above, with W95F counted along it
T2 sequence (W5VH56 entry or part of it I95T/Q127R/A180V/L236I/A265N): as the sequence (W5VH56 entry or part of it I95W/Q127R/A180V/L236I/A265N) above, with W95T counted along it
T7 sequence (W5VH56 entry or part of it I95F/Q127R/A180M/L236I/A265N): as the sequence (W5VH56 entry or part of it I95W/Q127R/A180V/L236I/A265N) above, with W95F, V180M counted along it
T4 sequence (W5VH56 entry or part of it P80G/I95T/Q127R/A180V/L236I/A265N): as the sequence (W5VH56 entry or part of it I95W/Q127R/A180V/L236I/A265N) above, with P80G, W95T counted along it
T5 sequence (W5VH56 entry or part of it I95T/Q127R/A180V/L236I/A265N/T286I): as the sequence (W5VH56 entry or part of it I95W/Q127R/A180V/L236I/A265N) above, with W95T, T286I counted along it
T9 sequence (W5VH56 entry or part of it I95T/Q127R/A180I/L236I/A265N): as the sequence (W5VH56 entry or part of it I95W/Q127R/A180V/L236I/A265N) above, with W95T, V180I counted along it
T10 sequence (W5VH56 entry or part of it I95T/Q127R/A180M/L236I/A265N): as the sequence (W5VH56 entry or part of it I95W/Q127R/A180V/L236I/A265N) above, with W95T, V180M counted along it
T3 sequence (W5VH56 entry or part of it F76N/I95T/Q127R/A180V/L236I/A265N): as the sequence (W5VH56 entry or part of it I95W/Q127R/A180V/L236I/A265N) above, with F76N, W95T counted along it

As for `CC[C@H](C)C(=O)O[C@H]1CCC=C2C=C[C@H](C)[C@H](CC[C@@H]3C[C@@H](O)CC(=O)O3)[C@H]21` [compactin, compactin (mevastatin)], the Kd on CYP105AS1 amounted to 30300 ± 5200 nM; on P450pra, 770 ± 70 nM; on P450pra + F76N, 4810 ± 250 nM; at P450pra + P80G, 5840 ± 340 nM; at P450pra + T286I it was 4930 ± 250 nM; at P450pra + T95F it was 250 ± 10 nM. Besides, the Kd in series [1] was 130 ± 30 nM; at P450pra + T95W, 3290 ± 30 nM; on P450pra +V180I, 1640 ± 130 nM; on P450pra +V180M it was 1340 ± 60 nM.

For the compound `CC[C@H](C)C(=O)O[C@H]1C[C@H](O)C=C2C=C[C@H](C)[C@H](CC[C@@H](O)C[C@@H](O)CC(=O)O)[C@H]21` [pravastatin], the “metabolism by human CYP3A4” value with human CYP3A4 is on record as “not significantly metabolized”. In addition, in the series with CYP3A5, the “metabolism by human CYP3A5” value was “not significantly metabolized”.

One may read the Kd as the constant that tells how readily two partners part at equilibrium.
